# Experimental data reported in ChEMBL document CHEMBL1141678 (Eur J Med Chem, 2008).
# Columns and labels:
# [1] = biological target: T1, Cytochrome P450 2C9 (Homo sapiens, UniProt P11712); assay: Inhibition of human recombinant CYP2C9 in presence of reduced glutathione; assay type: ADME; conditions: recombinant enzyme
# [2] = biological target: T2, Cytochrome P450 2B6 (Homo sapiens, UniProt P20813); assay: Inhibition of human recombinant CYP2B6 in presence of reduced glutathione; assay type: ADME; conditions: recombinant enzyme
# T2 sequence (P20813 whole entry): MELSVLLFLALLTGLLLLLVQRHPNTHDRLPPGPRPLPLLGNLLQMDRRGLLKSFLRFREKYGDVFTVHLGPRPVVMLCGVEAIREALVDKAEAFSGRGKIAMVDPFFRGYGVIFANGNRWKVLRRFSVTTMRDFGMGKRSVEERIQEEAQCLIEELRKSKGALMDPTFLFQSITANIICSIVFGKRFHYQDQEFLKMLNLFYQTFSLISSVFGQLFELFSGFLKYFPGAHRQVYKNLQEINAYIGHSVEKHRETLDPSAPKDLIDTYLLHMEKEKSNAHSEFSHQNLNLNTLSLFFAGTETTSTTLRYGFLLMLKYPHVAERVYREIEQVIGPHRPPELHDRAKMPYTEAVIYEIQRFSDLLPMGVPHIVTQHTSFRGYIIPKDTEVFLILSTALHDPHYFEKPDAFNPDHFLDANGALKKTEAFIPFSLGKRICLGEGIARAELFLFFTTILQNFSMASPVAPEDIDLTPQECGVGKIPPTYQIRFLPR
# [3] = biological target: T3, Cytochrome P450 3A4 (Homo sapiens, UniProt P08684); assay: Inhibition of human recombinant CYP3A4 in presence of reduced glutathione; assay type: ADME; conditions: recombinant enzyme
# T3 sequence (P08684 whole entry): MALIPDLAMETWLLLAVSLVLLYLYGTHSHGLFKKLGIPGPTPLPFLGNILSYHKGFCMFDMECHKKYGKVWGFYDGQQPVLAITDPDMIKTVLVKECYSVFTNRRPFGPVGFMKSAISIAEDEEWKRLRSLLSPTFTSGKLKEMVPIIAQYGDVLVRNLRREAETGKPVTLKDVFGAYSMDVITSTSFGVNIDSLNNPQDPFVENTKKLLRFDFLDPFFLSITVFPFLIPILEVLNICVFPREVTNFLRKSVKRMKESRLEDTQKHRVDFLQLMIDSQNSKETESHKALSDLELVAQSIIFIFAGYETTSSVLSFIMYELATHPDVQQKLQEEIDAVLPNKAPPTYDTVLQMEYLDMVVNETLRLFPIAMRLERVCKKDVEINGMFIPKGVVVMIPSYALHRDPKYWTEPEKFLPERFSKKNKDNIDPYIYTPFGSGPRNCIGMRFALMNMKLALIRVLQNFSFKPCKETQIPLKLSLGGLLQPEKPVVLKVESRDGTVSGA
# [4] = biological target: T4, Cytochrome P450 2D6 (Homo sapiens, UniProt P10635); assay: Inhibition of human recombinant CYP2D6 in presence of reduced glutathione; assay type: ADME; conditions: recombinant enzyme
# T4 sequence (P10635 whole entry): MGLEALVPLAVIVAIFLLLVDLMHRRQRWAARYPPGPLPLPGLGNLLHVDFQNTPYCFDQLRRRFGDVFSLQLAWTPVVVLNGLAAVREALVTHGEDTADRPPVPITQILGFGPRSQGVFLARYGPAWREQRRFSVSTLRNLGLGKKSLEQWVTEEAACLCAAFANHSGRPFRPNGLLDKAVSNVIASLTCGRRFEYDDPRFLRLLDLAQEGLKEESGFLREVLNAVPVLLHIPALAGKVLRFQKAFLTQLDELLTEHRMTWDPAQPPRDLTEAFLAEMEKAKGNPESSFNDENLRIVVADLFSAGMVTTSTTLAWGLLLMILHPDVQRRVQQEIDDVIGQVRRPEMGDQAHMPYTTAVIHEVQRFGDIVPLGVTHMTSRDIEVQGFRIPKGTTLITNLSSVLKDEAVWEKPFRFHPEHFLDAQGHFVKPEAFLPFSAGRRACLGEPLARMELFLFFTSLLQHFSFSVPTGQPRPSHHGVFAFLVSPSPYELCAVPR
# [5] = biological target: T4, Cytochrome P450 2D6; assay: Inhibition of human recombinant CYP2D6; assay type: ADME
# [6] = biological target: T1, Cytochrome P450 2C9; assay: Inhibition of human recombinant CYP2C9; assay type: ADME
# [7] = biological target: T4, Cytochrome P450 2D6; assay: Inhibition of human recombinant CYP2D6 at 100 uM; assay type: ADME; conditions: recombinant enzyme
# [8] = biological target: T3, Cytochrome P450 3A4; assay: Inhibition of human recombinant CYP3A4 at 100 uM; assay type: ADME; conditions: recombinant enzyme
# [9] = biological target: T2, Cytochrome P450 2B6; assay: Inhibition of human recombinant CYP2B6 at 100 uM; assay type: ADME; conditions: recombinant enzyme
# [10] = biological target: T3, Cytochrome P450 3A4; assay: Inhibition of human recombinant CYP3A4; assay type: ADME
# [11] = biological target: T5, Cytochrome P450 1A2 (Homo sapiens, UniProt P05177); assay: Inhibition of human recombinant CYP1A2; conditions: for log(1/IC50): human
# T5 sequence (P05177 whole entry): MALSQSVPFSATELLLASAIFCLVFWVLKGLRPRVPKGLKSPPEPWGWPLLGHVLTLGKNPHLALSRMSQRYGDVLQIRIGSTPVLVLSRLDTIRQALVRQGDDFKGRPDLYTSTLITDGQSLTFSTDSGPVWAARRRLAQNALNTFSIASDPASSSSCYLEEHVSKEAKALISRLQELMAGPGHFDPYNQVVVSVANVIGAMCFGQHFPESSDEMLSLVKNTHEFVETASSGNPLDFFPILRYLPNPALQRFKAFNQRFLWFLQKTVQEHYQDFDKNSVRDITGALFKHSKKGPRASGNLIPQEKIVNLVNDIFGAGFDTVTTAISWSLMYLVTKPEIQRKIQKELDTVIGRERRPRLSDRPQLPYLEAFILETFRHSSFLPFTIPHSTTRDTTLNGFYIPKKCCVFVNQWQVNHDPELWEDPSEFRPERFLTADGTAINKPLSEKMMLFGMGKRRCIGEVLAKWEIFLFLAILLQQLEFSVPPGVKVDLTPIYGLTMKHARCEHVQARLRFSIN
# T1 sequence (P11712 whole entry): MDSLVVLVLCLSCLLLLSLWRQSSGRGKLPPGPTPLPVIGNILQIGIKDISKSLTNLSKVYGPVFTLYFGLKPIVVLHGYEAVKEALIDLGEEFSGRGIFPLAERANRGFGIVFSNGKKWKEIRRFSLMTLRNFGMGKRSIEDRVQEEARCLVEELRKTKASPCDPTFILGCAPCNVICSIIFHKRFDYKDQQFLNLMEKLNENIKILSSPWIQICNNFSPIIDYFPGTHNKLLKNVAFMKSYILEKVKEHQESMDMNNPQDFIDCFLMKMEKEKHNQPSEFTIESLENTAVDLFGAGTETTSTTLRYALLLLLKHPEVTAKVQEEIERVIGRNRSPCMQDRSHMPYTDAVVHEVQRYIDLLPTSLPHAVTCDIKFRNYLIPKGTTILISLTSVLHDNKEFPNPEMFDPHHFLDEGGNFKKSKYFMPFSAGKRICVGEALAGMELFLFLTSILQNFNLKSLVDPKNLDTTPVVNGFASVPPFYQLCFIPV
Activity [1],Activity [2],Activity [3],Activity [4],IC50 [5] [µM],IC50 [6] [µM],Activity [7],Activity [8],Activity [9],IC50 [10] [µM],IC50 [11] [µM],log(1/IC50) ([11]; recombinant CYP1A2),log(1/IC50) [11],Structure (SMILES)
Not Active,Not Active,Not Active,Not Active,0.6,–,–,–,–,–,41.5,–,1.382,COc1cc(/C=C/C(=O)/C=C/c2ccc(O)c(OC)c2)ccc1O
Not Active,Not Active,Not Active,Not Active,–,21.3,–,–,–,–,3.4,2.469,–,O=C(/C=C/c1cccc(Cl)c1)/C=C/c1cccc(Cl)c1
Not Active,Not Active,Not Active,Not Active,–,28.3,–,–,–,–,–,–,–,Cc1cc(/C=C2\CC/C(=C\c3cc(C)c(O)c(C)c3)C2=O)cc(C)c1O
Not Active,Not Active,Not Active,Not Active,–,–,–,–,–,–,26.6,1.575,–,O=C(/C=C/c1ccc(Cl)cc1)/C=C/c1ccc(Cl)cc1
Not Active,Not Active,Not Active,Not Active,–,–,Not Active,Not Active,Not Active,–,–,–,–,CC(C)(C)c1cc(/C=C2\CCC/C(=C\c3cc(C(C)(C)C)c(O)c(C(C)(C)C)c3)C2=O)cc(C(C)(C)C)c1O
Not Active,Not Active,Not Active,Not Active,2,1.8,–,–,–,–,–,–,–,O=C(/C=C/c1ccc(O)cc1)/C=C/c1ccc(O)cc1
Not Active,Not Active,Not Active,Not Active,–,–,–,–,–,–,–,–,–,O=C1/C(=C/c2ccc(C(F)(F)F)cc2)CC/C1=C\c1ccc(C(F)(F)F)cc1
Not Active,Not Active,Not Active,Not Active,–,–,Not Active,Not Active,Not Active,–,3.4,2.469,–,O=C1/C(=C/c2cccc(Cl)c2)CCC/C1=C\c1cccc(Cl)c1
Not Active,Not Active,Not Active,Not Active,–,–,–,–,–,–,–,–,–,O=C1/C(=C/c2cccc(Cl)c2)CC/C1=C\c1cccc(Cl)c1
Not Active,Not Active,Not Active,Not Active,–,–,–,–,–,–,36.6,1.437,–,O=C1/C(=C/c2ccccc2)CC/C1=C\c1ccccc1
Not Active,Not Active,Not Active,Not Active,–,–,–,–,–,–,–,–,–,O=C(/C=C/c1ccc(Cl)c(Cl)c1)/C=C/c1ccc(Cl)c(Cl)c1
Not Active,Not Active,Not Active,Not Active,–,–,–,–,–,–,–,–,–,O=C1/C(=C/c2ccc(Cl)cc2)CC/C1=C\c1ccc(Cl)cc1
Not Active,Not Active,Not Active,Not Active,–,–,Not Active,Not Active,Not Active,–,2.6,2.585,–,CN(C)c1ccc(/C=C2\CCC/C(=C\c3ccc(N(C)C)cc3)C2=O)cc1
Not Active,Not Active,Not Active,Not Active,–,37.7,–,–,–,73.5,36.7,–,1.435,CCc1cc(/C=C2\CC/C(=C\c3cc(CC)c(O)c(CC)c3)C2=O)cc(CC)c1O
Not Active,Not Active,Not Active,Not Active,–,–,Not Active,Not Active,Not Active,–,21,1.678,–,Cc1ccc(/C=C2\CCC/C(=C\c3ccc(C)cc3)C2=O)cc1
Not Active,Not Active,Not Active,Not Active,–,–,–,–,–,–,4,2.398,–,O=C(/C=C/c1ccc(C(F)(F)F)cc1)/C=C/c1ccc(C(F)(F)F)cc1

# Further lines, the molecule ahead of its results:
Structure (SMILES),Activity [1],Activity [2],Activity [3],Activity [4],IC50 [5] [µM],IC50 [6] [µM],Activity [7],Activity [8],Activity [9],IC50 [10] [µM],IC50 [11] [µM],log(1/IC50) ([11]; recombinant CYP1A2),log(1/IC50) [11]
O=C(/C=C/c1ccccc1)/C=C/c1ccccc1,Not Active,Not Active,Not Active,Not Active,68.5,67.3,–,–,–,–,–,–,–
O=C1/C(=C/c2ccc(O)cc2)CCC/C1=C\c1ccc(O)cc1,Not Active,Not Active,Not Active,Not Active,–,1,Not Active,Not Active,Not Active,–,–,–,–
O=C1/C(=C/c2ccc(O)cc2)CC/C1=C\c1ccc(O)cc1,Not Active,Not Active,Not Active,Not Active,–,9.9,–,–,–,5.1,45.6,1.341,–
COc1ccc(/C=C2\CC/C(=C\c3ccc(OC)cc3)C2=O)cc1,Not Active,Not Active,Not Active,Not Active,–,–,–,–,–,–,–,–,–
O=C1/C(=C/c2ccc(Cl)c(Cl)c2)CC/C1=C\c1ccc(Cl)c(Cl)c1,Not Active,Not Active,Not Active,Not Active,–,–,–,–,–,–,–,–,–
COc1cc(/C=C2\CC/C(=C\c3ccc(O)c(OC)c3)C2=O)ccc1O,Not Active,Not Active,Not Active,Not Active,–,2.8,–,–,–,64.9,38.9,1.41,–
CN(C)c1ccc(/C=C2\CC/C(=C\c3ccc(N(C)C)cc3)C2=O)cc1,Not Active,Not Active,Not Active,Not Active,–,–,–,–,–,–,–,–,–
Cc1cc(/C=C2\CCC/C(=C\c3cc(C)c(O)c(C)c3)C2=O)cc(C)c1O,Not Active,Not Active,Not Active,Not Active,–,–,Not Active,Not Active,Not Active,–,–,–,–
Cc1ccc(/C=C/C(=O)/C=C/c2ccc(C)cc2)cc1,Not Active,Not Active,Not Active,Not Active,–,–,–,–,–,–,–,–,–
COc1ccc(/C=C2\CCC/C(=C\c3ccc(OC)cc3)C2=O)cc1,Not Active,Not Active,Not Active,Not Active,–,–,Not Active,Not Active,Not Active,–,11,1.959,–
O=C1/C(=C/c2ccc(C(F)(F)F)cc2)CCC/C1=C\c1ccc(C(F)(F)F)cc1,Not Active,Not Active,Not Active,Not Active,–,–,Not Active,Not Active,Not Active,–,10.4,1.983,–
"O=C1/C(=C/c2ccccc2)CCC/C1=C\c1ccccc1 [2,6-DIBENZYLIDENECYCLOHEXANONE]",Not Active,Not Active,Not Active,Not Active,–,–,Not Active,Not Active,Not Active,–,0.9,3.046,–
CC(C)(C)c1ccc(/C=C/C(=O)/C=C/c2ccc(C(C)(C)C)cc2)cc1,Not Active,Not Active,Not Active,Not Active,–,–,–,–,–,–,28,1.553,–
